This is an account of results in patent US20230414735A1, “NEOANTIGENS AND METHODS OF THEIR USE” (priority 2016, published 2023).

Where no end group is shown, it is not given here.

The term IC50 denotes the concentration that inhibits the measured activity by half.

Experiment [1] addresses HLA class I molecule. Briefly: HLA class I peptide binding affinity assay (inhibition of 125I-radiolabeled probe peptide binding to purified HLA). Also on record: species or system human. The following applies: allele A02.01; read-out: Observed Affinity (IC50; (nM)). The procedure:
Epstein-Barr virus (EBV)-transformed homozygous cell lines, fibroblasts, CIR, or 721.22 transfectants are used as sources of HLA class I molecules. […] HLA molecules are purified from lysates by affinity chromatography. The lysates are passed over a column of Sepharose CL-4B beads coupled to an appropriate antibody. […] A 1/25 volume of 2.0 M Tris, pH 6.8, is added to the eluate to reduce the pH to […]. Eluates are then concentrated by centrifugation in Centriprep 30 concentrators (Amicon, Beverly, MA). Protein content is evaluated by a BCA protein assay (Pierce Chemical Co., Rockford, IL) and confirmed by SDS-PAGE.
Following incubation, MHC-peptide complexes are separated from free peptide by gel filtration on 7.8 mm×15 cm TSK200 columns (TosoHaas 16215, Montgomeryville, PA). Because the large size of the radiolabeled peptide used for the DRB1*1501 (DR2w2(31) assay makes separation of bound from unbound peaks more difficult under these conditions, all DRB1*1501 (DR2w2(31) assays were performed using a 7.8 mm×30 cm TSK2000 column eluted at 0.6 mLs/min. The eluate from the TSK columns is passed through a Beckman 170 radioisotope detector, and radioactivity is plotted and integrated using a Hewlett-Packard 3396A integrator, and the fraction of peptide bound is determined.
Radiolabeled peptides are iodinated using the chloramine-T method. […] All subsequent inhibition and direct binding assays are performed using these HLA concentrations.
Since under these conditions [label]<[HLA] and IC50≥[HLA], the measured IC50 values are reasonable approximations of the true KD values. […] For database purposes, and inter-experiment comparisons, relative binding values are compiled. These values can subsequently be converted back into IC50 nM values by dividing the IC50 nM of the positive controls for inhibition by the relative binding of the peptide of interest.
HLA binding assays were used to evaluate either the affinity of interaction of a given epitope with a selected HLA molecule or the stability.
The measurements are plotted against the predicted affinity in FIG. 1.

Experiment [2] has as its system HLA Class I molecules. Briefly: HLA class I binding stability assay (pMHC-I complex dissociation, 125I-labeled β2m, scintillation counts). The arrangement: species or system human.
Protocol: These reactions are carried out in streptavidin coated microplates to bind th biotinylated MHC-I heavy chains to the surface and allow measurement of radiolabeled light chain to monitor complex formation. Dissociation is initiated by addition of higher concentations of unlabled light-chain and incubation at 37° C. Stability is defined as the length of time in hours it takes for half of the complexes to dissociate, as measured by scintillation counts
The mark [3] stands for this setting: allele A02.01, pMHC-I dissociation at 37° C.

Turning to `CC(C)C[C@H](NC(=O)[C@H](C)N)C(=O)N[C@@H](CC(N)=O)C(=O)N[C@@H](CO)C(=O)N[C@@H](CCC(=O)O)C(=O)N[C@@H](C)C(=O)N[C@@H](CC(C)C)C(=O)N[C@@H](CO)C(=O)N[C@H](C(=O)N[C@H](C(=O)O)C(C)C)C(C)C`, the IC50 in experiment [1] amounted to 15 nM. In experiment [2] (allele A02.01, 37° C.), the “Stability (T1/2 (h))” value came to 2.9 h.

Turning to `CC(C)C[C@H](NC(=O)CN)C(=O)N[C@H](C(=O)N[C@@H](CC(=O)O)C(=O)N[C@@H](CCC(=O)O)C(=O)N[C@@H](CCC(N)=O)C(=O)N[C@@H](CCC(N)=O)C(=O)N[C@@H](CCC(=O)O)C(=O)N[C@H](C(=O)O)C(C)C)C(C)C`, the IC50 in experiment [1] amounted to 44 nM. For the same compound, the “Stability (T1/2 (h))” value in experiment [2] (allele A02.01, 37° C.) is 7.4 h.

With `C[C@H](NC(=O)[C@H](CO)NC(=O)[C@H](C)NC(=O)[C@@H]1CCCN1C(=O)[C@H](C)NC(=O)[C@@H]1CCCN1C(=O)[C@H](CCCNC(=N)N)NC(=O)[C@@H]1CCCN1C(=O)[C@@H](N)Cc1c[nH]cn1)C(=O)O`, the “Stability (T1/2 (h))” value in experiment [2] (allele B07.02, 37° C.) was 4.9 h.

Regarding `CC[C@H](C)[C@H](N)C(=O)N[C@@H](CCSC)C(=O)N[C@@H](CCC(N)=O)C(=O)N[C@@H](CC(C)C)C(=O)N[C@@H](CCSC)C(=O)N1CCC[C@H]1C(=O)N[C@@H](Cc1ccccc1)C(=O)NCC(=O)N[C@@H](CS)C(=O)N[C@@H](CC(C)C)C(=O)O`, the “Stability (T1/2 (h))” value in experiment [2] (setting [3]) came to 0.5 h.

Consider `CC[C@H](C)[C@H](N)C(=O)N[C@@H](CCC(N)=O)C(=O)N[C@@H](CC(C)C)C(=O)N[C@@H](CCC(N)=O)C(=O)N[C@@H](CC(=O)O)C(=O)N[C@@H](CCCCN)C(=O)N[C@@H](Cc1ccccc1)C(=O)N[C@@H](CCC(=O)O)C(=O)N[C@@H](Cc1c[nH]cn1)C(=O)N[C@@H](CC(C)C)C(=O)O`, for which the “Stability (T1/2 (h))” value in experiment [2] (setting [3]) is given as 0.2 h.

For `CC[C@H](C)[C@H](NC(=O)[C@@H](N)CC(C)C)C(=O)N[C@@H](CCSC)C(=O)N[C@@H](CCC(N)=O)C(=O)N[C@@H](CC(C)C)C(=O)N[C@@H](CCSC)C(=O)N1CCC[C@H]1C(=O)N[C@@H](Cc1ccccc1)C(=O)NCC(=O)N[C@@H](CS)C(=O)O`, in experiment [1], the 50% inhibitory concentration (IC50) worked out at 177 nM. Besides, the “Stability (T1/2 (h))” value in experiment [2] (setting [3]) was 0.4 h.

As to `CC(C)C[C@H](N)C(=O)N1CCC[C@H]1C(=O)N[C@@H](CCCNC(=N)N)C(=O)N[C@@H](CCCCN)C(=O)N1CCC[C@H]1C(=O)N[C@H](C(=O)N[C@@H](CCCNC(=N)N)C(=O)N[C@@H](C)C(=O)N[C@@H](C)C(=O)O)[C@@H](C)O`, the “Stability (T1/2 (h))” value in experiment [2] (allele B07.02, 37° C.) is recorded as 5.5 h.

Consider `CSCC[C@H](NC(=O)[C@H](Cc1c[nH]c2ccccc12)NC(=O)[C@H](Cc1c[nH]cn1)NC(=O)[C@H](CC(N)=O)NC(=O)[C@H](CCCNC(=N)N)NC(=O)[C@H](CCCNC(=N)N)NC(=O)[C@H](CCC(N)=O)NC(=O)[C@H](CO)NC(=O)[C@@H]1CCCN1C(=O)[C@@H](N)CC(C)C)C(=O)O`, for which the “Stability (T1/2 (h))” value in experiment [2] (allele B07.02, 37° C.) turned out to be 6.5 h; in experiment [2] (allele B08.01, 37° C.) it was 0.7 h.

Turning to `CSCC[C@H](NC(=O)[C@H](CC(C)C)NC(=O)[C@H](CCC(N)=O)NC(=O)[C@@H](N)CCSC)C(=O)N1CCC[C@H]1C(=O)N[C@@H](Cc1ccccc1)C(=O)NCC(=O)N[C@@H](CS)C(=O)N[C@@H](CC(C)C)C(=O)O`, in experiment [2] (setting [3]), the “Stability (T1/2 (h))” value worked out at 0.4 h.

On to `CSCC[C@H](NC(=O)[C@H](CC(C)C)NC(=O)[C@H](CCC(N)=O)NC(=O)[C@@H](N)CCSC)C(=O)N1CCC[C@H]1C(=O)N[C@@H](Cc1ccccc1)C(=O)NCC(=O)N[C@@H](CS)C(=O)N[C@@H](CC(C)C)C(=O)N[C@@H](CC(C)C)C(=O)O`, for which the “Stability (T1/2 (h))” value in experiment [2] (setting [3]) is recorded as 0.4 h.

As to `CC[C@H](C)[C@H](NC(=O)[C@H](CC(C)C)NC(=O)[C@@H](N)CCC(N)=O)C(=O)N[C@@H](CCSC)C(=O)N[C@@H](CCC(N)=O)C(=O)N[C@@H](CC(C)C)C(=O)N[C@@H](CCSC)C(=O)N1CCC[C@H]1C(=O)N[C@@H](Cc1ccccc1)C(=O)O`, the “Stability (T1/2 (h))” value in experiment [2] (setting [3]) is on record as 0.3 h.

For `CC(C)C[C@H](NC(=O)[C@H](Cc1c[nH]cn1)NC(=O)[C@H](CCC(=O)O)NC(=O)[C@H](Cc1ccccc1)NC(=O)[C@H](CCCCN)NC(=O)[C@H](CC(=O)O)NC(=O)[C@H](CCC(N)=O)NC(=O)[C@H](CC(C)C)NC(=O)[C@@H](N)CCC(N)=O)C(=O)O`, the “Stability (T1/2 (h))” value in experiment [2] (setting [3]) stood at 0.6 h.

Take `CC[C@H](C)[C@H](NC(=O)[C@H](Cc1ccccc1)NC(=O)[C@H](CCCNC(=N)N)NC(=O)[C@@H]1CCCN1C(=O)[C@H](CC(C)C)NC(=O)[C@@H](N)CO)C(=O)N[C@@H](CC(C)C)C(=O)N[C@@H](CCSC)C(=O)N[C@@H](CCC(=O)O)C(=O)N[C@@H](CC(C)C)C(=O)O`: the “Stability (T1/2 (h))” value in experiment [2] (setting [3]) was determined as 0.5 h; in experiment [2] (allele B07.02, pMHC-I dissociation at 37° C.), 0.4 h.

In the case of `CC(C)[C@H](N)C(=O)N[C@H](C(=O)N1CCC[C@H]1C(=O)N[C@@H](CS)C(=O)N[C@@H](CCC(=O)O)C(=O)N1CCC[C@H]1C(=O)N1CCC[C@H]1C(=O)N[C@@H](CCC(=O)O)C(=O)N[C@H](C(=O)O)C(C)C)C(C)C`, the half-inhibitory concentration (IC50) in experiment [1] was determined as 187 nM. In experiment [2] (allele A02.01, 37° C.), the “Stability (T1/2 (h))” value was 0.9 h.

`CC(C)C[C@H](NC(=O)[C@H](CC(C)C)NC(=O)[C@H](CC(C)C)NC(=O)CNC(=O)[C@H](Cc1ccc(O)cc1)NC(=O)[C@H](CC(C)C)NC(=O)[C@@H]1CCCN1C(=O)[C@@H](NC(=O)[C@@H](N)C(C)C)C(C)C)C(=O)O`: the concentration for half-maximal inhibition (IC50) in experiment [1] was determined as 1040 nM. Besides, the “Stability (T1/2 (h))” value in experiment [2] (setting [3]) came out at 0.6 h.

With `CC(C)C[C@H](NC(=O)[C@@H](NC(=O)[C@H](CC(=O)O)NC(=O)[C@H](CC(C)C)NC(=O)[C@@H](NC(=O)[C@@H](N)Cc1ccc(O)cc1)[C@@H](C)O)C(C)C)C(=O)N[C@@H](CCC(=O)O)C(=O)N[C@@H](CCCNC(=N)N)C(=O)N[C@@H](CS)C(=O)O`, in experiment [1], the IC50 was determined as 1760 nM. In experiment [2] (allele A02.01, 37° C.), the “Stability (T1/2 (h))” value is given as 6.6 h.

On to `CC(C)C[C@H](NC(=O)[C@H](C)NC(=O)[C@@H](NC(=O)[C@H](CCCNC(=N)N)NC(=O)[C@H](CO)NC(=O)[C@H](CC(=O)O)NC(=O)[C@H](CO)NC(=O)[C@H](CC(C)C)NC(=O)[C@@H](N)CCCCN)[C@@H](C)O)C(=O)O` [KLSDSRTAL], for which the “Stability (T1/2 (h))” value was found to be 2.8 h in experiment [2] (allele A02.01, 37° C.) and 6.8 h in experiment [2] (allele B07.02, 37° C.).

Regarding ALSASNSCF, in experiment [1], the IC50 was determined as 728 nM. For the same compound, in experiment [2] (allele A02.01, 37° C.), the “Stability (T1/2 (h))” value was 0.3 h.

As to ALSASNSCFI, the 50% inhibitory concentration (IC50) in experiment [1] amounted to 226 nM. For the same compound, the “Stability (T1/2 (h))” value in experiment [2] (allele A02.01, 37° C.) came out at 0.8 h.

In the case of ALSEHCPTT, in experiment [1], the IC50 is 79 nM. In experiment [2] (allele A02.01, 37° C.), the “Stability (T1/2 (h))” value is 27.3 h.

On to CLADVLLSV, for which the IC50 in experiment [1] came to 219 nM. In experiment [2] (setting [3]), the “Stability (T1/2 (h))” value worked out at 24 h.

With FSGEYIPTV, the IC50 in experiment [1] turned out to be 3 nM. Besides, in experiment [2] (allele A02.01, 37° C.), the “Stability (T1/2 (h))” value was 6.8 h.

Consider GLLAFWDSQV, for which the IC50 in experiment [1] was found to be 10 nM. Moreover, the “Stability (T1/2 (h))” value in experiment [2] (allele A02.01, 37° C.) is 14.2 h.

GLLLEMLDA: the IC50 in experiment [1] worked out at 558 nM. For the same compound, the “Stability (T1/2 (h))” value in experiment [2] (setting [3]) is recorded as 0.4 h.

Turning to GVYTFLPST, the IC50 in experiment [1] worked out at 779 nM. Besides, the “Stability (T1/2 (h))” value in experiment [2] (setting [3]) is on record as 1.3 h.

As for GVYTFLPSTL, the IC50 in experiment [1] worked out at 1200 nM. The “Stability (T1/2 (h))” value in experiment [2] (setting [3]) worked out at 0.4 h.

As to IIIEYCFYG, in experiment [2] (allele A02.01, 37° C.), the “Stability (T1/2 (h))” value was 1.2 h.

In the case of ILMELMAGG, the IC50 in experiment [1] amounted to 223 nM. Besides, in experiment [2] (setting [3]), the “Stability (T1/2 (h))” value turned out to be 0.5 h.

In the case of IMQLMPFGC, the 50% inhibitory concentration (IC50) in experiment [1] is 1610 nM. Besides, in experiment [2] (setting [3]), the “Stability (T1/2 (h))” value was found to be 0.4 h.

As for KPTRAATVSV, in experiment [2] (allele B07.02, 37° C.), the “Stability (T1/2 (h))” value is on record as 3 h.

Regarding KVLQMDFLV, the “Stability (T1/2 (h))” value in experiment [2] (setting [3]) is listed as 6.4 h.

Regarding KVSRENTSPK, the “Stability (T1/2 (h))” value in experiment [2] (allele A03.01, 37° C.) is given as 13.5 h.

Take LPRKPTRAAT: the “Stability (T1/2 (h))” value in experiment [2] (allele B07.02, 37° C.) amounted to 3.7 h.

On to MNWRPILTI, for which the “Stability (T1/2 (h))” value in experiment [2] (allele A02.01, 37° C.) came out at 3.8 h.
